Experimental data as given in US11649215B2, “Compositions and methods for the treatment of oral infectious diseases” (Cellix Bio Private Limited, priority 2016, dated 2023).
Converted amounts (≈) assume the structure as drawn. “Also recorded” adds a separate entry of the source. Read-outs that look alike come from different tables or passages of the source.

Assays:
[1] = tested on: various oral pathogenic microorganisms; conditions: cited from earlier work; for antimicrobial activity among the long-chain fatty acids: comparison among long-chain fatty acids
Candida Species = test: MIC against the Candida Species; format: cell-based; conditions: conversion of 0.45 μmoles/ml, read-out: MIC (corresponding mass concentration)
Excerpt: Linoleic acid is GRAS listed long chain fatty acid. […] The minimum inhibitory concentration for linoleic acid against Porphyromonas gingivalis was 9 to 78 mcg/ml.

MIC (Candida Species) [µg/mL] | SMILES | antimicrobial activity among the long-chain fatty acids [1] | antimicrobial activity against oral microorganisms ([1]; in vitro, incl. S. mutans, A. actinomycetemcomitans, C. albicans, P. gingivalis, F. nucleatum, S. gordonii) | bactericidal concentration ([1]; n-6 fatty acids GLA) [µg/mL] | bactericidal concentration [1] [µg/mL]
– | CCCCC/C=C\C/C=C\C/C=C\CCCCC(=O)O [GLA, gamma linoleic acid] | greatest antimicrobial activity | significant anti-microbial activity; also recorded: antimicrobial activities | 25 | –
0.13 (≈ 0.464 µM) | CCCCC/C=C\C/C=C\CCCCCCCC(=O)O [Linoleic acid] | greatest antimicrobial activity | – | – | 25
– | CCCCC/C=C\C/C=C\C/C=C\C/C=C\CCCC(=O)O [arachidonic acid] | greatest antimicrobial activity | – | – | –
– | CCCCCCCCCCCCCCCC(=O)O [palmitic acid] | greatest antimicrobial activity | – | – | –
– | CCCCCC/C=C\CCCCCCCC(=O)O [palmitoleic acid] | greatest antimicrobial activity | – | – | –
